Measured values from ChEMBL document CHEMBL4828725 (Eur J Med Chem, 2021).

Key:
[1] = Inhibition of Penicillium decumbens alpha-L-rhamnosidase using p-nitrophenyl glycoside as substrate assessed as release of p-nitrophenol measured by spectrometric assay
[2] = organism: Sus scrofa; assay: Inhibition of porcine kidney alpha-trehalase using p-nitrophenyl glycoside as substrate assessed as release of p-nitrophenol at 1000 uM measured by spectrometric assay relative to control
[3] = Inhibition of snail beta-mannosidase using p-nitrophenyl glycoside as substrate assessed as release of p-nitrophenol measured by spectrometric assay; design: species or system Helix pomatia
[4] = target: Beta-glucuronidase (Escherichia coli (strain K12)) (UniProt P05804); assay: Inhibition of Escherichia coli beta-glucuronidase using p-nitrophenyl glycoside as substrate assessed as release of p-nitrophenol at 1000 uM measured by spectrometric assay relative to control
[5] = organism: Bos taurus; assay: Inhibition of bovine liver beta-glucosidase using p-nitrophenyl glycoside as substrate assessed as release of p-nitrophenol at 1000 uM measured by spectrometric assay relative to control; format: tissue-based
[6] = Inhibition of rice alpha-glucosidase using p-nitrophenyl glycoside as substrate assessed as release of p-nitrophenol measured by spectrometric assay; design: species or system Oryza sativa
[7] = target: Beta-glucuronidase (Escherichia coli (strain K12), UniProt P05804); assay: Inhibition of Escherichia coli beta-glucuronidase using p-nitrophenyl glycoside as substrate assessed as release of p-nitrophenol measured by spectrometric assay
[8] = Inhibition of almond beta-glucosidase using p-nitrophenyl glycoside as substrate assessed as release of p-nitrophenol measured by spectrometric assay; design: species or system Prunus dulcis
[9] = organism: Rattus norvegicus; assay: Inhibition of rat intestinal maltase using maltose as substrate assessed as release of D-glucose at 1000 uM measured by spectrometric assay
[10] = target: Alpha-galactosidase (Coffea arabica, UniProt Q42656); assay: Inhibition of coffee beans alpha-galactosidase using p-nitrophenyl glycoside as substrate assessed as release of p-nitrophenol measured by spectrometric assay
[11] = tested on: Aspergillus niger; assay: Inhibition of Aspergillus niger amyloglucosidase using p-nitrophenyl glycoside as substrate assessed as release of p-nitrophenol at 1000 uM measured by spectrometric assay relative to control
[12] = tested on: Penicillium decumbens; assay: Inhibition of Penicillium decumbens alpha-L-rhamnosidase using p-nitrophenyl glycoside as substrate assessed as release of p-nitrophenol at 1000 uM measured by spectrometric assay relative to control
[13] = target: T1, Sucrase-isomaltase, intestinal (Rattus norvegicus, UniProt P23739); assay: Inhibition of rat intestinal sucrase using p-nitrophenyl glycoside as substrate assessed as release of p-nitrophenol measured by spectrometric assay
[14] = tested on: Prunus dulcis; assay: Inhibition of almond beta-glucosidase using p-nitrophenyl glycoside as substrate assessed as release of p-nitrophenol at 1000 uM measured by spectrometric assay relative to control
[15] = Inhibition of Aspergillus niger amyloglucosidase using p-nitrophenyl glycoside as substrate assessed as release of p-nitrophenol measured by spectrometric assay
[16] = Inhibition of bovine liver beta-glucosidase using p-nitrophenyl glycoside as substrate assessed as release of p-nitrophenol measured by spectrometric assay; design: species or system Bos taurus
[17] = Inhibition of rat intestinal maltase using maltose as substrate assessed as release of D-glucose measured by spectrometric assay
[18] = target: T2, Tissue alpha-L-fucosidase (Bos taurus, UniProt Q2KIM0); assay: Inhibition of bovine kidney alpha-L-fucosidase using p-nitrophenyl glycoside as substrate assessed as release of p-nitrophenol measured by spectrometric assay
T2 sequence (Q2KIM0 whole entry): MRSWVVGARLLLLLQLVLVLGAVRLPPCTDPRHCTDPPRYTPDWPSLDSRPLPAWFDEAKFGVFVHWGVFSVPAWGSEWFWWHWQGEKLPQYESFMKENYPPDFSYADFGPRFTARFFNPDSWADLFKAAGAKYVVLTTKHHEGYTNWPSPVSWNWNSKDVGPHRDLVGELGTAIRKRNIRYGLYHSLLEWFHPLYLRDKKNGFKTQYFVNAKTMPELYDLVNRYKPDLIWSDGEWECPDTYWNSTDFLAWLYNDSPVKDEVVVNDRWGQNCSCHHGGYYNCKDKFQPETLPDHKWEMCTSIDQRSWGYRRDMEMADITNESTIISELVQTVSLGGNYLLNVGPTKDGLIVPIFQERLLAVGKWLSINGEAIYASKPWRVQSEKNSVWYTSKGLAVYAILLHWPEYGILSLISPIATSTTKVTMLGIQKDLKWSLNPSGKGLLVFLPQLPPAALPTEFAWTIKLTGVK

[19] = target: T1, Sucrase-isomaltase, intestinal; assay: Inhibition of rat intestinal isomaltase using p-nitrophenyl glycoside as substrate assessed as release of p-nitrophenol measured by spectrometric assay
[20] = Inhibition of jack bean alpha-mannosidase using p-nitrophenyl glycoside as substrate assessed as release of p-nitrophenol measured by spectrometric assay; design: species or system Canavalia ensiformis
[21] = target: Alpha-galactosidase (Coffea arabica) (UniProt Q42656); assay: Inhibition of coffee beans alpha-galactosidase using p-nitrophenyl glycoside as substrate assessed as release of p-nitrophenol at 1000 uM measured by spectrometric assay relative to control
[22] = organism: Bos taurus; assay: Inhibition of bovine liver beta-galactosidase using p-nitrophenyl glycoside as substrate assessed as release of p-nitrophenol at 1000 uM measured by spectrometric assay relative to control
[23] = Inhibition of porcine kidney alpha-trehalase using p-nitrophenyl glycoside as substrate assessed as release of p-nitrophenol measured by spectrometric assay; design: species or system Sus scrofa
[24] = Inhibition of bovine liver beta-galactosidase using p-nitrophenyl glycoside as substrate assessed as release of p-nitrophenol measured by spectrometric assay; format: tissue-based, Bos taurus
[25] = target: T3, Alpha-mannosidase (Canavalia ensiformis) (UniProt C0HJB3); assay: Inhibition of jack bean alpha-mannosidase using p-nitrophenyl glycoside as substrate assessed as release of p-nitrophenol at 1000 uM measured by spectrometric assay relative to control
T3 sequence (whole entry): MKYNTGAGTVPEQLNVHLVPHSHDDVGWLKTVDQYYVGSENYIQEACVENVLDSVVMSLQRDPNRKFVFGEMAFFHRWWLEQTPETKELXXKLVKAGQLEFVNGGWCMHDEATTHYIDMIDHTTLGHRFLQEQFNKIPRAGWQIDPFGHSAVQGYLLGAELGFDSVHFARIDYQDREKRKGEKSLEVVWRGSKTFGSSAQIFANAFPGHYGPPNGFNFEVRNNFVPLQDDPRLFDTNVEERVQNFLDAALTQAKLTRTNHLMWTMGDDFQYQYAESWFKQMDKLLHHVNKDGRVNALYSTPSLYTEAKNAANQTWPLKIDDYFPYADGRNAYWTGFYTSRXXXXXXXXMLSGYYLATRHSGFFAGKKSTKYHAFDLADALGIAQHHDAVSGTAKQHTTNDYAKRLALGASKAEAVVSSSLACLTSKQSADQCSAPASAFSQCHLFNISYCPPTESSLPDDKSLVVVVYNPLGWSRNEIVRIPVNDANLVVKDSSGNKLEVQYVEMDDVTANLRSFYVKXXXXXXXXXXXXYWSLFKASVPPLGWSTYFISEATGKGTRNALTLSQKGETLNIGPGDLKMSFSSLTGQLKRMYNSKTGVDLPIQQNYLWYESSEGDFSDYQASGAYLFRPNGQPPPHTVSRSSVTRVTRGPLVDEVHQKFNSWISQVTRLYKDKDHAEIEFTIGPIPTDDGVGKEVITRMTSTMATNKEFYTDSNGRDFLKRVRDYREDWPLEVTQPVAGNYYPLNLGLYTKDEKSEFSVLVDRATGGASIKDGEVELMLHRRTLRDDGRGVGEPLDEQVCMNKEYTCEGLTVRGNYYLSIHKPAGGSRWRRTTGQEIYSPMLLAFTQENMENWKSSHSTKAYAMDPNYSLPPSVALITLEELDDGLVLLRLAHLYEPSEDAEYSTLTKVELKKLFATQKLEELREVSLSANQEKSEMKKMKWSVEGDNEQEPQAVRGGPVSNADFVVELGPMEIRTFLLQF

[26] = target: T4, Tissue alpha-L-fucosidase (Bos taurus) (UniProt Q2KIM0); assay: Inhibition of bovine kidney alpha-L-fucosidase using p-nitrophenyl glycoside as substrate assessed as release of p-nitrophenol at 1000 uM measured by spectrometric assay relative to control; format: tissue-based
T4 sequence (whole entry): T2 sequence (Q2KIM0 whole entry)

[27] = tested on: Helix pomatia; assay: Inhibition of snail beta-mannosidase using p-nitrophenyl glycoside as substrate assessed as release of p-nitrophenol at 1000 uM measured by spectrometric assay relative to control
[28] = Inhibition of Agrobacterium sp beta-glucosidase using p-nitrophenyl beta-glucoside as substrate assessed as release of p-nitrophenol measured by plate reader assay
[29] = tested on: Oryza sativa; assay: Inhibition of rice alpha-glucosidase using p-nitrophenyl glycoside as substrate assessed as release of p-nitrophenol at 1000 uM measured by spectrometric assay

Alpha-galactosidase (Coffea arabica), sequence (Q42656 16-378 limits assumed): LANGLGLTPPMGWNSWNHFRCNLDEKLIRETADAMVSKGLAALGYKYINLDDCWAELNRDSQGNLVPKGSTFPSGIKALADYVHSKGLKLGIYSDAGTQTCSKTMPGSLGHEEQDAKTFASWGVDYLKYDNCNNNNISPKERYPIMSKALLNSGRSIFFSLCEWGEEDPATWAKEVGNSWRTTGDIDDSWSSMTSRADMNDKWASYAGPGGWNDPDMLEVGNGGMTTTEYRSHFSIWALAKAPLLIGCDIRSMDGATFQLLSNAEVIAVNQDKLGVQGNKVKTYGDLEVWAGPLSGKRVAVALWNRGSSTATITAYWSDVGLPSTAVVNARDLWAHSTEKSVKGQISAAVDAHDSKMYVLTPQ
T1 sequence (P23739 1-1013 limits assumed): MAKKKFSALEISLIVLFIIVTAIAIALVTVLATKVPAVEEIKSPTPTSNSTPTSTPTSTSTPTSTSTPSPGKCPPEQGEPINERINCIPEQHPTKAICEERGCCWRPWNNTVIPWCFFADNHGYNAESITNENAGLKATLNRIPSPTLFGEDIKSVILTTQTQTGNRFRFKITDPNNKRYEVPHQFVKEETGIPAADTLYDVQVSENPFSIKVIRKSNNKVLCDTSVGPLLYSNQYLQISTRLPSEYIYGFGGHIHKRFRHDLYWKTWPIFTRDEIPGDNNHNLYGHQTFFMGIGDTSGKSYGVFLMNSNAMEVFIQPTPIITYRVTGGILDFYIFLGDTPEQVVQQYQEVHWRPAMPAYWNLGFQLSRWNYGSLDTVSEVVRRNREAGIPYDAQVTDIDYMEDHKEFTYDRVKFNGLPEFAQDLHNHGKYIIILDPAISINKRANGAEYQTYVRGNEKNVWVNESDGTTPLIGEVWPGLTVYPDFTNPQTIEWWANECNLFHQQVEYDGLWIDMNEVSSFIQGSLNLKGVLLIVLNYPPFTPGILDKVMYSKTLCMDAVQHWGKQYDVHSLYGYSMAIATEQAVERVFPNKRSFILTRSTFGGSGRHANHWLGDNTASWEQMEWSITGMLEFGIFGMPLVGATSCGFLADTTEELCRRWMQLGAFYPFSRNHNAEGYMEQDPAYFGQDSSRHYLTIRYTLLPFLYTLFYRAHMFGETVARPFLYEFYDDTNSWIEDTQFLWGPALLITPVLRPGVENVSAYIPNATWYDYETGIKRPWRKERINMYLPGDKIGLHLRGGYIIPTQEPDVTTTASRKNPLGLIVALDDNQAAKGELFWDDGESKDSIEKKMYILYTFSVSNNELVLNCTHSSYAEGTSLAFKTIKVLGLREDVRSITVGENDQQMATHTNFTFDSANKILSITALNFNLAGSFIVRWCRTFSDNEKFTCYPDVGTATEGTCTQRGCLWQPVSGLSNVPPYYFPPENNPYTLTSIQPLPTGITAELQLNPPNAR
T1 sequence (P23739 1014-1841 limits assumed): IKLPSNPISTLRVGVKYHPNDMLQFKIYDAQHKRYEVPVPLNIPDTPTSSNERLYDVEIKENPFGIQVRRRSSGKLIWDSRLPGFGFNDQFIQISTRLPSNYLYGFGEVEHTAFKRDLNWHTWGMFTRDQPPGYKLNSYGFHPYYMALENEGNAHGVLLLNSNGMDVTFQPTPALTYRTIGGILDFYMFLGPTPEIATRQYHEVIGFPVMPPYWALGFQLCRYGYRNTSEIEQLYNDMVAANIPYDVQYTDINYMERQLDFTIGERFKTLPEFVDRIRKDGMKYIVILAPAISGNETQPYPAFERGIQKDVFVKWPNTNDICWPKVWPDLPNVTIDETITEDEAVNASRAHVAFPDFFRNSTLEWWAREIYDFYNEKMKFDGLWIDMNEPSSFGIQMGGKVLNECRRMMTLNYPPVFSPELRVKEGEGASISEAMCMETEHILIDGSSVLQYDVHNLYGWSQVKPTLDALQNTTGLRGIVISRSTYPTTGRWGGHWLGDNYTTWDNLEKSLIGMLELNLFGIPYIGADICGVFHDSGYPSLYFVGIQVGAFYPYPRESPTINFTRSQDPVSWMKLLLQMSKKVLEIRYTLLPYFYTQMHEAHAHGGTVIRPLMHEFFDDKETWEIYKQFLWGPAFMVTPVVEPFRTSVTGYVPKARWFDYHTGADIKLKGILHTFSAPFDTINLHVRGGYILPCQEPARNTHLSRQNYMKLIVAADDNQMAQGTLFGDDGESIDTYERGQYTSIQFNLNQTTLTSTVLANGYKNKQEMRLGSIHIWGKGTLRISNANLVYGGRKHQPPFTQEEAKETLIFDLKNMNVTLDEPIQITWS
Alpha-galactosidase, sequence (Q42656 whole entry): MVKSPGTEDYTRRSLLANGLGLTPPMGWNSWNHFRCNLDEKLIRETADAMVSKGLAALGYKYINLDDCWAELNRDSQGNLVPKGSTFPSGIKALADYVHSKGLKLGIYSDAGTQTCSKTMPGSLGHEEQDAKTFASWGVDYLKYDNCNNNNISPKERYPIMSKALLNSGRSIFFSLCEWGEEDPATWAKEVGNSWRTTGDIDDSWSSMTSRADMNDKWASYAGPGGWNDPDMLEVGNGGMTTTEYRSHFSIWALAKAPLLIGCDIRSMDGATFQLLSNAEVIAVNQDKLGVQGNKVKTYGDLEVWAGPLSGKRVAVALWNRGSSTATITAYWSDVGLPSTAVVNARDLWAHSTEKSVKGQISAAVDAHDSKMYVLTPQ
Beta-glucuronidase (Escherichia coli (strain K12)), sequence (P05804 whole entry, looked up): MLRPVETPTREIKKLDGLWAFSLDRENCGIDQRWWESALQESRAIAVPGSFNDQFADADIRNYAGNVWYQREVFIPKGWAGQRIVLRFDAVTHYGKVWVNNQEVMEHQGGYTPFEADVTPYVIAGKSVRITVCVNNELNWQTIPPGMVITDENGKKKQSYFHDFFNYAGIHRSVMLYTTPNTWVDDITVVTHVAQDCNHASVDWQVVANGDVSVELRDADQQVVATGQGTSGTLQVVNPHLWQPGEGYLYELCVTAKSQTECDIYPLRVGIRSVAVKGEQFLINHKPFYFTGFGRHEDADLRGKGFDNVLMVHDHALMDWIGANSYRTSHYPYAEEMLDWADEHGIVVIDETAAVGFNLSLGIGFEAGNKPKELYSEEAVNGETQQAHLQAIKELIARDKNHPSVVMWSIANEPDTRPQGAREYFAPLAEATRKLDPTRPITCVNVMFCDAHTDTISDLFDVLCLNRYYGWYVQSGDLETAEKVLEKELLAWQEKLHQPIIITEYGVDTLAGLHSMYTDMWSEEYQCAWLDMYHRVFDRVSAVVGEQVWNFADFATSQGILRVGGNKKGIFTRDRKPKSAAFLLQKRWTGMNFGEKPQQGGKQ
Beta-glucuronidase, sequence (P05804 whole entry): as the sequence (P05804 whole entry, looked up) above

IC50 [1] | inhibition [2] | IC50 [3] | inhibition [4] | IC50 [7] | IC50 [8] | inhibition [9] | IC50 [10] | inhibition [11] | inhibition [12] | inhibition [14] | IC50 [15] | IC50 [17] | IC50 [18] | IC50 [19] | IC50 [20] | inhibition [21] | IC50 [23] | inhibition [25] | inhibition [26] | SMILES | further results
Not Active | 2.7% | Not Active | 42.1% | Not Active | Not Active | 0% | Not Active | 2.3% | 2.7% | 19.5% | Not Active | 134 µM | Not Active | Not Active | Not Active | 9.6% | Not Active | 13.8% | 30.4% | CCC[C@@]1(CO)NC[C@H](O)[C@@H](O)[C@@H]1O.Cl | inhibition [5]: 9.1%; IC50 ([6]; read-out: IC50): 82 µM; IC50 ([13]; read-out: IC50): 94 µM; IC50 [16]: Not Active; inhibition [22]: 15.4%; IC50 [24]: Not Active; inhibition [27]: 4.9%
Not Active | 0% | Not Active | 5.3% | Not Active | Not Active | 4.6% | Not Active | 0% | 4.8% | 5.2% | Not Active | 765 µM | Not Active | Not Active | Not Active | 1.6% | Not Active | 3.3% | 1.1% | CCCCCCCCCCC[C@@]1(CO)NC[C@H](O)[C@@H](O)[C@@H]1O.Cl | inhibition [5]: 29.8%; IC50 [6]: Not Active; inhibition [29]: 17.6%; IC50 [13]: Not Active; IC50 [16]: Not Active; IC50 ([24]; read-out: IC50): 100 µM; inhibition [27]: 0%

The remaining lines, values behind:

SMILES | IC50 [1] | inhibition [2] | IC50 [3] | inhibition [4] | IC50 [7] | IC50 [8] | inhibition [9] | IC50 [10] | inhibition [11] | inhibition [12] | inhibition [14] | IC50 [15] | IC50 [17] | IC50 [18] | IC50 [19] | IC50 [20] | inhibition [21] | IC50 [23] | inhibition [25] | inhibition [26] | further results
C#Cc1ccc(C(=O)OCCCCCCN2C[C@H](O)[C@@H](O)[C@H](O)[C@H]2CO)cc1 | – | – | – | – | – | – | – | – | – | – | – | – | – | – | – | – | – | – | – | – | IC50 [28]: 2.2 µM
CCCCCC[C@@]1(CO)NC[C@H](O)[C@@H](O)[C@@H]1O.Cl | Not Active | 3.4% | Not Active | 17.2% | Not Active | Not Active | 11.6% | Not Active | 13.2% | 1.5% | 2.5% | Not Active | 272 µM | Not Active | Not Active | Not Active | 8% | Not Active | 6.7% | 0.9% | inhibition [5]: 15.7%; IC50 ([6]; read-out: IC50): 257 µM; IC50 [13]: Not Active; IC50 [16]: Not Active; inhibition [22]: 24.8%; IC50 [24]: Not Active; inhibition [27]: 2.8%
CCCCCCCCCCCC[C@@]1(CO)NC[C@H](O)[C@@H](O)[C@@H]1O.Cl | Not Active | 0% | Not Active | 13.9% | Not Active | Not Active | 2.3% | Not Active | 0% | 1.2% | 7.6% | Not Active | 660 µM | Not Active | Not Active | Not Active | 0% | Not Active | 3.3% | 0% | IC50 [6]: Not Active; inhibition [29]: 33.6%; IC50 [13]: Not Active; IC50 ([16]; read-out: IC50): 47 µM; IC50 ([24]; read-out: IC50): 17 µM; inhibition [27]: 0.5%
CCCCC[C@@]1(CO)NC[C@H](O)[C@@H](O)[C@@H]1O.Cl | Not Active | 5.3% | Not Active | 3.9% | Not Active | Not Active | 15.1% | Not Active | 0% | 0% | 4.4% | Not Active | 156 µM | Not Active | Not Active | Not Active | 1.7% | Not Active | 1.2% | 0% | inhibition [5]: 9.2%; IC50 ([6]; read-out: IC50): 48 µM; IC50 [13]: Not Active; IC50 [16]: Not Active; inhibition [22]: 18.7%; IC50 [24]: Not Active; inhibition [27]: 4%
